Test [1] has as its target T1, TRPM3 P1090Q mutant (Homo sapiens, UniProt Q9HCF6, P1115Q).
T1 sequence (Q9HCF6 1-1325 isoform Q9HCF6-10 P1090Q): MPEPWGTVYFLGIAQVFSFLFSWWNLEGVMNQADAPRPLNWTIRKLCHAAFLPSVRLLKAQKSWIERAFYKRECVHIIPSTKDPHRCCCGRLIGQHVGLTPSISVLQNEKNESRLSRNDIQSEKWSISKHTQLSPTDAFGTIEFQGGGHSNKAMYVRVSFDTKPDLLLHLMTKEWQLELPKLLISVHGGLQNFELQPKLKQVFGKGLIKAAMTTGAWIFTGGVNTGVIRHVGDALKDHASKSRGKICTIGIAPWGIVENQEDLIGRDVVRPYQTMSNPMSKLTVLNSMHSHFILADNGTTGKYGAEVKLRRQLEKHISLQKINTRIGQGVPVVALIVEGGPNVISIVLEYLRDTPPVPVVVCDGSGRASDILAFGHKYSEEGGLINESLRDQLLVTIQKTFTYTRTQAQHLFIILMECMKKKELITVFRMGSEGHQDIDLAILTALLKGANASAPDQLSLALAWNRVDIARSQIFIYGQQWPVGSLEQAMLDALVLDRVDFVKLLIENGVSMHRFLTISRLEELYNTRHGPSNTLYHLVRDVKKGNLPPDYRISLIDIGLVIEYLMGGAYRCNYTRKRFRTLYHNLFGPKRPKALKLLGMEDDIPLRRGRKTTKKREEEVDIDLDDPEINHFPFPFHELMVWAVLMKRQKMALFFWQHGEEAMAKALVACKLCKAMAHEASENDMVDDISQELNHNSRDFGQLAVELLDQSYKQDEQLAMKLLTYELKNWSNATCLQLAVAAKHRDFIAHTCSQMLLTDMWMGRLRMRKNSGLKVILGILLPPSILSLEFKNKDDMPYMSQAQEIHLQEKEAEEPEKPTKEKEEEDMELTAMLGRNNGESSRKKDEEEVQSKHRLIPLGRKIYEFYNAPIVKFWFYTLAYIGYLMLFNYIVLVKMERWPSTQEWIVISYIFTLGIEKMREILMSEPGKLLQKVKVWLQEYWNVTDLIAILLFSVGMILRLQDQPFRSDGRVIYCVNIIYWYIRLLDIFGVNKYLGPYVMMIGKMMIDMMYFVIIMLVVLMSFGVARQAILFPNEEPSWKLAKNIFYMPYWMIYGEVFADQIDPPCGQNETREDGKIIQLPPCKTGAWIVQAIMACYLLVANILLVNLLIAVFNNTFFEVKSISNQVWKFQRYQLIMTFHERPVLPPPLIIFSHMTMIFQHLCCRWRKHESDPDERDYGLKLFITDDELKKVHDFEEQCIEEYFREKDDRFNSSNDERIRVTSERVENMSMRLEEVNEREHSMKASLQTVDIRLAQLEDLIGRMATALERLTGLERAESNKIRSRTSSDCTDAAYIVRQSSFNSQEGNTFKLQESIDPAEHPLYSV
How it is done:
(§1) HEK293T cells ([Graham et al., 1977]) were cultured as described previously ([Vriens et al., 2007]) and used up in passage number 14. HEK293T cells were tested for the lack of mycoplasma and transiently transfected with 2 µg of DNA using TransIT transfection reagent (Mirus) 36–48 hr before the measurements. In case of co-cultures a ratio of 1:1 between hTRPM3-YFP WT and mutants-YFP DNA was used.
(§2) All mutants were obtained by the standard PCR overlap extension method using hTRPM3 directly linked to YFP from pCAGGS/IRES-GFP vector ([Vriens et al., 2007]). Accuracy of all mutant sequences was verified by sequencing of the entire DNA constructs.
Standard whole-cell patch-clamp recordings were performed with an EPC-10 amplifier and the PatchMasterPro Software (HEKA Elektronik, Lambrecht, Germany). Current measurements were performed at a sampling rate of 20 kHz and currents were digitally filtered at 2.9 kHz. In all measurements, 70% of the series resistance was compensated. The standard internal solution contained (in mM): 100 CsAsp, 45 CsCl, 10 EGTA, 10 HEPES, 1 MgCl2 (pH 7.2 with CsOH) or 140 potassium gluconate, 5 EGTA, 1 MgCl2, 10 HEPES and 2 NaATP (pH 7.3 with CsOH) for the measurements of Gβγ mediated inhibition and the standard extracellular solution contained (in mM): 150 NaCl, 1 MgCl2, 10 HEPES (pH 7.4 with NaOH). The standard patch pipette resistance was between 2 MΩ and 4 MΩ when filled with pipette solution. In experiments allowing Ca^2+-dependent desensitization of TRPM3, Mg^2+ was replaced by Ca^2+ in the extracellular solution, and Cs^+ was replaced by Na^+ in the pipette solution. […] The chemical ligands were dissolved in bath solution from a stock diluted in DMSO.

Test [2] concerns the target T1, TRPM3 P1090Q mutant. Description: Fura-2-based calcium imaging, HEK293T cells transfected with P1090Q hTRPM3. It counts as cell-based. More on the design: expressed in transfected cells; host or cells: HEK293T. As to the method:
as §1, §2
Changes in intracellular calcium concentration were monitored using ratiometric Fura-2-based fluorimetry. Cells were loaded with 2 µM Fura-2-acetoxymethyl ester (Alexis Biochemicals) for 30 min at 37°C. Fluorescence was measured during alternating illumination at 340 and 380 nm using Eclipse Ti (Nikon) fluorescence microscopy system, and absolute calcium concentration was calculated from the ratio of the fluorescence signals at these two wavelengths (R = F340/F380) as [Ca^2+]=Km × (R-Rmin)/(Rmax-R), where Km, Rmin and Rmax were estimated from in vitro calibration experiments with known calcium concentrations. The bath solution contained (in mM) 138 NaCl, 5.4 KCl, 2 CaCl2, 2 MgCl2, 10 glucose, and 10 HEPES, pH 7.4. […]

Regarding `Clc1ccccc1C(c1ccccc1)(c1ccccc1)n1ccnc1` [Clt, clotrimazole], the “Activation of whole-cell currents in the absence of PS” value in test [1] (Clt 10 µM) is “did not activate currents”. Besides, the “Effect on the response to PS (whole-cell currents)” value in test [1] (Clt 10 µM, PS 40 µM) is “inhibited the response to PS”.

Regarding `CCC1(c2ccccc2)C(=O)NCNC1=O` [primidone], the “Inhibition of PS-activated inward and outward currents” value in test [1] (primidone 25 µM, PS 40 µM, ±80 mV, cells co-expressing µ-opioid receptor) is recorded as “full inhibition”. Further, the “Effect on basal [Ca2+]i” value in test [2] (primidone 100 µM, isosakuranetin 50 µM) was “reduced [Ca^2+]i”.

pregnenolone sulfate [PS]: the “PS concentration giving robust calcium responses (as low as)” value in test [2] is on record as 1 µM.

The values are drawn from PMC7253177, “Gain of channel function and modified gating properties in TRPM3 mutants causing intellectual disability and epilepsy” (eLife, 2020).
